# According to patent publication US20230295162A1 (EÖTVÖS LORÁND TUDOMÁNYEGYETEM, priority 2020, published 2023):
# Read-outs that look alike come from different tables or passages of the source.
# Tests used:
# [1] = test system: Capan-1 (pancreas, adenocarcinoma) cells; assay: Cell viability assay, CellTiter-Glo (Example 21); type: cell-based, human; details: 72 h treatment
# Description: (§1) Effect of the selected compounds on cancer cell viability was measured via CellTiter-Glo® luminescent cell viability assay (Promega, Madison, WI, USA) according to the manufacturer's instructions. Cells were plated onto a flat-bottomed, white 96 well plate (BRANDplates®, cat. no.: 781965). Density of the seeded cells was optimized based on their size and growth rate, as the follows: Panc-1:750 cells/well; DU 145, PC-3, Capan-1, MIA PaCa-2, SCC-25, FaDu and EBC-1: 1000 cells/well; LNCaP, Detroit 562, MDA-MB-231 and MDA-MB-453 1500 cells/well. […] After the treatment, the luminescence signal was recorded using a microplate reader (BioTek Synergy 2 Multi-Mode Reader, BioTek, Winooski, VT, USA). Dose-response curves were generated by GraphPad Prism 8.4.2. software using a non-linear regression model (variable slope, four parameters), (see FIGS. 12-51).
# [2] = test system: DU 145 (prostate, carcinoma) cells; assay: Cell viability assay, CellTiter-Glo (Example 21); type: cell-based, human; details: 72 h
# Description: as §1
# [3] = test system: Detroit 562 (pharynx, carcinoma) cells; assay: Cell viability assay, CellTiter-Glo (Example 21); type: cell-based, human; details: 72 h treatment
# Description: as §1
# [4] = test system: EBC-1 (lung, squamous cell carcinoma) cells; assay: Cell viability assay, CellTiter-Glo (Example 21); type: cell-based, human; details: 72 h treatment
# Description: as §1
# [5] = test system: FaDu (pharynx, squamous cell carcinoma) cells; assay: Cell viability assay, CellTiter-Glo (Example 21); type: cell-based, human; details: 72 h treatment
# Description: as §1
# [6] = test system: LNCaP (prostate, carcinoma) cells; assay: Cell viability assay, CellTiter-Glo (Example 21); type: cell-based, human; details: 72 h
# Description: as §1
# [7] = test system: MDA-MB-231 (breast, adenocarcinoma) cells; assay: Cell viability assay, CellTiter-Glo (Example 21); type: cell-based, human; details: 72 h treatment
# Description: as §1
# [8] = test system: MDA-MB-453 (breast, carcinoma) cells; assay: Cell viability assay, CellTiter-Glo (Example 21); type: cell-based, human; details: 72 h treatment
# Description: as §1
# [9] = test system: MIA PaCa-2 (pancreas, carcinoma) cells; assay: Cell viability assay, CellTiter-Glo (Example 21); type: cell-based, human; details: 72 h treatment
# Description: as §1
# [10] = test system: PC-3 (prostate, adenocarcinoma) cells; assay: Cell viability assay, CellTiter-Glo (Example 21); type: cell-based, human; details: 72 h treatment
# Description: as §1
# [11] = test system: Panc-1 (pancreas, carcinoma) cells; assay: Cell viability assay, CellTiter-Glo (Example 21); type: cell-based, human; details: 72 h treatment
# Description: as §1
# [12] = test system: SCC-25 (tongue, squamous cell carcinoma) cells; assay: Cell viability assay, CellTiter-Glo (Example 21); type: cell-based, human; details: 72 h treatment
# Description: as §1
# [13] = test system: Panc-1 human cell line; assay: Cytotoxicity on Panc-1, xCELLigence SP, IC50 after 24 h, 48 h, 72 h and 96 h (Example 22)
structure (smiles),measurement,setting,value
[N-]=[N+]=Nc1cccc(CN2CCC3=C(C2)C(=O)N(Cc2ccc(Cl)cc2)C2=NCCN23)c1 [I/133],"Capan-1 (pancreas, adenocarcinoma) cell viability (% of control)",[1]; 3.7 nM,108.3 ± 8.3 % of control
same,"Capan-1 (pancreas, adenocarcinoma) cell viability (% of control)",[1]; 11.1 nM,98.8 ± 7.9 % of control
same,"Capan-1 (pancreas, adenocarcinoma) cell viability (% of control)",[1]; 100 nM,32.6 ± 4.0 % of control
same,"Capan-1 (pancreas, adenocarcinoma) cell viability (% of control)",[1]; 300 nM,34.0 ± 2.8 % of control
same,DU 145 cell viability,[2]; 3.7 nM,98.8 ± 6.7 % of control
same,DU 145 cell viability,[2]; 11.1 nM,45.7 ± 4.4 % of control
same,DU 145 cell viability,[2]; 100 nM,8.0 ± 2.0 % of control
same,DU 145 cell viability,[2]; 300 nM,8.1 ± 2.6 % of control
same,"Detroit 562 (pharynx, carcinoma) cell viability (% of control)",[3]; 3.7 nM,47.1 ± 16.0 % of control
same,"Detroit 562 (pharynx, carcinoma) cell viability (% of control)",[3]; 11.1 nM,31.1 ± 6.5 % of control
same,"Detroit 562 (pharynx, carcinoma) cell viability (% of control)",[3]; 100 nM,28.8 ± 3.6 % of control
same,"Detroit 562 (pharynx, carcinoma) cell viability (% of control)",[3]; 300 nM,31.3 ± 4.1 % of control
same,"EBC-1 (lung, squamous cell carcinoma) cell viability (% of control)",[4]; 3.7 nM,97.1 ± 6.0 % of control
same,"EBC-1 (lung, squamous cell carcinoma) cell viability (% of control)",[4]; 11.1 nM,60.1 ± 6.7 % of control
same,"EBC-1 (lung, squamous cell carcinoma) cell viability (% of control)",[4]; 100 nM,23.2 ± 0.7 % of control
same,"EBC-1 (lung, squamous cell carcinoma) cell viability (% of control)",[4]; 300 nM,22.2 ± 1.3 % of control
same,"FaDu (pharynx, squamous cell carcinoma) cell viability (% of control)",[5]; 3.7 nM,100.0 ± 6.2 % of control
same,"FaDu (pharynx, squamous cell carcinoma) cell viability (% of control)",[5]; 11.1 nM,70.7 ± 13.1 % of control
same,"FaDu (pharynx, squamous cell carcinoma) cell viability (% of control)",[5]; 100 nM,25.3 ± 6.4 % of control
same,"FaDu (pharynx, squamous cell carcinoma) cell viability (% of control)",[5]; 300 nM,24.6 ± 6.8 % of control
same,LNCaP cell viability,[6]; 3.7 nM,95.9 ± 6.1 % of control
same,LNCaP cell viability,[6]; 11.1 nM,33.4 ± 3.1 % of control
same,LNCaP cell viability,[6]; 100 nM,12.3 ± 1.1 % of control
same,LNCaP cell viability,[6]; 300 nM,13.3 ± 1.2 % of control
same,"MDA-MB-231 (breast, adenocarcinoma) cell viability (% of control)",[7]; 3.7 nM,101.4 ± 2.0 % of control
same,"MDA-MB-231 (breast, adenocarcinoma) cell viability (% of control)",[7]; 11.1 nM,100.4 ± 2.9 % of control
same,"MDA-MB-231 (breast, adenocarcinoma) cell viability (% of control)",[7]; 100 nM,58.2 ± 2.5 % of control
same,"MDA-MB-231 (breast, adenocarcinoma) cell viability (% of control)",[7]; 300 nM,56.4 ± 3.5 % of control
same,"MDA-MB-453 (breast, carcinoma) cell viability (% of control)",[8]; 3.7 nM,108.6 ± 19.7 % of control
same,"MDA-MB-453 (breast, carcinoma) cell viability (% of control)",[8]; 11.1 nM,50.1 ± 10.6 % of control
same,"MDA-MB-453 (breast, carcinoma) cell viability (% of control)",[8]; 100 nM,31.9 ± 1.3 % of control
same,"MDA-MB-453 (breast, carcinoma) cell viability (% of control)",[8]; 300 nM,31.7 ± 0.5 % of control
same,"MIA PaCa-2 (pancreas, carcinoma) cell viability (% of control)",[9]; 3.7 nM,104.0 ± 17.3 % of control
same,"MIA PaCa-2 (pancreas, carcinoma) cell viability (% of control)",[9]; 11.1 nM,92.1 ± 13.2 % of control
same,"MIA PaCa-2 (pancreas, carcinoma) cell viability (% of control)",[9]; 100 nM,18.4 ± 7.8 % of control
same,"MIA PaCa-2 (pancreas, carcinoma) cell viability (% of control)",[9]; 300 nM,17.4 ± 7.9 % of control
same,"PC-3 (prostate, adenocarcinoma) cell viability (% of control)",[10]; 3.7 nM,105.6 ± 1.8 % of control
same,"PC-3 (prostate, adenocarcinoma) cell viability (% of control)",[10]; 11.1 nM,83.5 ± 6.4 % of control
same,"PC-3 (prostate, adenocarcinoma) cell viability (% of control)",[10]; 100 nM,32.6 ± 3.3 % of control
same,"PC-3 (prostate, adenocarcinoma) cell viability (% of control)",[10]; 300 nM,32.9 ± 4.6 % of control
same,"Panc-1 (pancreas, carcinoma) cell viability (% of control)",[11]; 3.7 nM,108.9 ± 10.2 % of control
same,"Panc-1 (pancreas, carcinoma) cell viability (% of control)",[11]; 11.1 nM,94.1 ± 4.0 % of control
same,"Panc-1 (pancreas, carcinoma) cell viability (% of control)",[11]; 100 nM,56.1 ± 3.7 % of control
same,"Panc-1 (pancreas, carcinoma) cell viability (% of control)",[11]; 300 nM,55.7 ± 2.5 % of control
same,"SCC-25 (tongue, squamous cell carcinoma) cell viability (% of control)",[12]; 3.7 nM,102.3 ± 4.2 % of control
same,"SCC-25 (tongue, squamous cell carcinoma) cell viability (% of control)",[12]; 11.1 nM,72.9 ± 3.0 % of control
same,"SCC-25 (tongue, squamous cell carcinoma) cell viability (% of control)",[12]; 100 nM,34.7 ± 4.9 % of control
same,"SCC-25 (tongue, squamous cell carcinoma) cell viability (% of control)",[12]; 300 nM,40.9 ± 3.7 % of control
same,IC50,"[13]; PANC-1, 72 h, read-out: IC50 (72 h) [nM]",9.05 ± 0.669 nM
same,IC50,"[13]; PANC-1, 96 h, read-out: IC50 (96 h) [nM]",4.73 ± 0.109 nM
